Measured values: paper PMC6270026, “Antibacterial and Herbicidal Activity of Ring-Substituted 2-Hydroxynaphthalene-1-carboxanilides” (Molecules, 2013)
≈ marks a conversion by molar mass, not a printed value. Where two headings read alike, the source gives them in different places.

Legend:
M. kansasii DSM 44162 = test: In vitro antimycobacterial evaluation (broth dilution MIC); format: cell-based; conditions: Mycobacterium kansasii, DSM44162, 168 h; M. kansasii DSM 44162, 7 days, 37 °C
[1] = tested on: Mycobacterium marinum CAMP 5644; test: as above; format: cell-based; conditions: Mycobacterium marinum, CAMP5644, 504 h, M. marinum CAMP 5644, 21 days, 28 °C
[2] = tested on: photosynthetic electron transport (PET) in spinach chloroplasts; test: Inhibition of photosynthetic electron transport (PET) in spinach chloroplasts; format: biochemical, Spinacia oleracea L.; conditions: DCPIP photoreduction
Description: Chloroplasts were prepared from spinach (Spinacia oleracea L.) according to Masarovicova and Kralova. The inhibition of photosynthetic electron transport (PET) in spinach chloroplasts was determined spectrophotometrically (Genesys 6, Thermo Electron Scientific Instruments, Madison, WI, USA), using an artificial electron acceptor 2,6-dichlorophenol-indophenol (DCPIP) according to Kralova et al., and the rate of photosynthetic electron transport was monitored as a photoreduction of DCPIP. The measurements were carried out in phosphate buffer (0.02 mol/L, pH 7.2) containing sucrose (0.4 mol/L), MgCl2 (0.005 mol/L) and NaCl (0.015 mol/L). The chlorophyll content was 30 mg/L in these experiments and the samples were irradiated (~100 W/m^2 with 10 cm distance) with a halogen lamp (250 W) using a 4 cm water filter to prevent warming of the samples (suspension temperature 22 °C). The studied compounds were dissolved in DMSO due to their limited water solubility. […] The inhibitory efficiency of the studied compounds was expressed by IC50 values, i.e., by molar concentration of the compounds causing 50% decrease in the oxygen evolution rate relative to the untreated control.

[3] = tested on: Mycobacterium avium subsp. paratuberculosis (CIT03); test: In vitro antimycobacterial evaluation (alamarBlue MIC); format: cell-based; conditions: 264 h, M. avium paratuberculosis CIT03, 11 days, 37 °C
Description: A well characterised clinical isolate of Mycobacterium avium subsp. paratuberculosis (CIT03) was grown in Middlebrook broth (MB), supplemented with Oleic-Albumin-Dextrose-Catalase supplement (OADC, Becton, Dickinson & Comp., Franklin Lakes, NJ, USA) and mycobactin J (2 µg/mL). Identification of this isolate was performed using biochemical and molecular protocols. At log phase growth, a culture sample (10 mL) was centrifuged at 15,000 rpm/20 min using a bench top centrifuge (Model CR 4-12, Jouan Inc., Winchester, VA, USA). Following removal of the supernatant, the pellet was washed in fresh Middlebrook 7H9GC broth and re-suspended in fresh supplemented MB (10 mL). The turbidity was adjusted to match McFarland standard No. 1 (3 × 10^8 cfu) with MB broth. A further 1:20 dilution of the culture was then performed in MB broth. The antimicrobial susceptibility of the mycobacterial species was investigated in a 96-well plate format. In these experiments, sterile deionised water (300 µL) was added to all outer-perimeter wells of the plates to minimize evaporation of the medium in the test wells during incubation. Each evaluated compound (100 µL) was incubated with each of the mycobacterial species (100 µL). Dilutions of each compound were prepared in duplicate. For all synthesized compounds, final concentrations ranged from 1,000 µg/mL to 8 µg/mL. All compounds were prepared in DMSO and subsequent dilutions were made in supplemented MB. The plates were sealed with parafilm and incubated at 37 °C, for 11 days in the case of M. avium paratuberculosis. Following incubation, a 10% addition of alamarBlue (AbD Serotec, Kidlington, UK) was mixed into each well and readings at 570 nm and 600 nm were taken, initially for background subtraction and subsequently after 24 h re-incubation. The background subtraction is necessary for strongly coloured compounds, where the colour may interfere with the interpretation of any colour change. For non-interfering compounds, a blue colour in the well was interpreted as an absence of growth and a pink colour was scored as growth. The minimum inhibitory concentrations (MICs) were initially defined as the lowest concentration which prevented a visual colour change from blue to pink.
The MICs were defined as the lowest concentration of the compound at which no visible bacterial growth was observed. The MIC value is routinely and widely used in bacterial assays and is a standard detection limit according to the Clinical and Laboratory Standards Institute (CLSI). Isoniazid (Sigma-Aldrich) was used as reference antimycobacterial drug.

M. smegmatis ATCC 700084 = test: In vitro antimycobacterial evaluation (broth dilution MIC); format: cell-based, Mycobacterium smegmatis; conditions: Mycolicibacterium smegmatis, ATCC700084, 72 h; M. smegmatis ATCC 700084, 3 days, 37 °C
[4] = tested on: methicillin-resistant Staphylococcus aureus SA 630; test: In vitro antibacterial susceptibility testing (broth dilution MIC); format: cell-based; conditions: MRSA, clinical isolate SA 630, 24 h, 37 °C
Description: (§1) The synthesized compounds were evaluated for in vitro antibacterial activity against representatives of multidrug-resistant bacteria, clinical isolates of methicillin-resistant Staphylococcus aureus (MRSA) 63718, SA 630 and SA 3202 that were obtained from the National Institute of Public Health, Prague, Czech Republic. Staphylococcus aureus ATCC 29213 was used as a reference and quality control strain. Ampicillin (Sigma-Aldrich) was used as the standard. Prior to testing, each strain was passaged onto nutrient agar (Oxoid, Hampshire, UK) with 5% of bovine blood, and bacterial inocula were prepared by suspending a small portion of bacterial colony in sterile phosphate buffered saline (pH 7.2–7.3). The cell density was adjusted to 0.5 McFarland units using a densitometer (Densi-La-Meter, LIAP, Riga, Latvia). The final inoculum was made by 1:20 dilution of the suspension with the Mueller-Hinton broth (MH broth). […] The final concentrations of the evaluated compounds ranging from 256 μg/mL to 0.008 μg/mL. The broth dilution micro-method modified according to NCCLS guidelines in MH broth was used to determine the minimum inhibitory concentration (MIC). Drug-free controls, sterility controls and controls consisted of MH broth and DMSO alone were included. The determination of results was performed visually after 24 h of static incubation in the darkness at 37 °C in an aerobic atmosphere. The MICs were defined as the lowest concentration of the compound at which no visible bacterial growth was observed.

[5] = tested on: methicillin-resistant Staphylococcus aureus SA 3202; test: as above; format: cell-based; conditions: MRSA, read-out: MIC MRSA 3202
Description: as §1

[6] = tested on: methicillin-resistant Staphylococcus aureus (MRSA) 63718; test: as above; format: cell-based; conditions: clinical isolate MRSA 63718, 24 h, 37 °C
Description: as §1

[7] = tested on: Staphylococcus aureus ATCC 29213; test: as above; format: cell-based; conditions: ATCC29213; Staphylococcus aureus ATCC 29213, 24 h, 37 °C
Description: as §1

[8] = clinical isolate SA 3202, 24 h, 37 °C

## O=C(Nc1ccccc1Cl)c1c(O)ccc2ccccc12 [Compound 5a, N-(2-chlorophenyl)-2-hydroxynaphthalene-1-carboxamide]
M. kansasii DSM 44162
  MIC: 107 µM (≈ 31.9 µg/mL)
[1]
  MIC: 107 µM (≈ 31.9 µg/mL)
[2]
  IC50: 49.6 µM
[3]
  MIC: 202 µM (≈ 60.1 µg/mL)
M. smegmatis ATCC 700084
  MIC: 107 µM (≈ 31.9 µg/mL)
[4]
  MIC: > 860 µM
[5]; 24 h
  MIC: > 860 µM
[6]
  MIC: 860 µM (≈ 256 µg/mL)
[7]
  MIC: 215 µM (≈ 64 µg/mL)

## O=C(Nc1ccccc1C(F)(F)F)c1c(O)ccc2ccccc12 [Compound 7a, 2-Hydroxy-N-(2-trifluoromethylphenyl)naphthalene-1-carboxamide]
M. kansasii DSM 44162
  MIC: 96.6 µM (≈ 32 µg/mL)
[1]
  MIC: 96.6 µM (≈ 32 µg/mL)
[2]
  IC50: 153 µM
[3]
  MIC: 377 µM (≈ 125 µg/mL)
M. smegmatis ATCC 700084
  MIC: 386 µM (≈ 128 µg/mL)
[4]
  MIC: 97.1 µM (≈ 32.2 µg/mL)
[5]; [8]
  MIC: 193 µM (≈ 63.9 µg/mL)
[6]
  MIC: 193 µM (≈ 63.9 µg/mL)
[7]
  MIC: 97.1 µM (≈ 32.2 µg/mL)

## O=C(Nc1cccc(C(F)(F)F)c1)c1c(O)ccc2ccccc12 [Compound 7b, 2-Hydroxy-N-(3-trifluoromethylphenyl)naphthalene-1-carboxamide]
M. kansasii DSM 44162
  MIC: 93.5 µM (≈ 31 µg/mL)
[1]
  MIC: > 748 µM
[2]
  IC50: 45.6 µM
[3]
  MIC: 731 µM (≈ 242 µg/mL)
M. smegmatis ATCC 700084
  MIC: > 748 µM
[4]
  MIC: 374 µM (≈ 124 µg/mL)
[5]; [8]
  MIC: 94 µM (≈ 31.1 µg/mL)
[6]
  MIC: 187 µM (≈ 62 µg/mL)
[7]
  MIC: > 748 µM
